Paper PMC9271885 (eBioMedicine, 2022)
Values joined by “and” are separate entries in the source; they are usually repeats but may differ in a detail not shown here. Equal values may be shown once. Read-outs that look alike come from different tables or passages of the source.

What was measured:
SARS-CoV-2 [1] = assay: Hamster model of SARS-CoV-2 infection, oral NTZ treatment (lung infectious titers, lung viral RNA yields, plasma viral loads); assay type: in vivo, Syrian hamsters; set-up: Lung Infectious titers / Plasmatic viral RNA yields / Lung Viral RNA yields: unit not given here; settings: for Lung Infectious titers / Lung Viral RNA yields / Plasmatic viral RNA yields: inoculum 104 TCID50, Figure 3, individual animals
SARS-CoV-2 [2] = assay type: cell-based; settings: bronchial human airway epithelium
[3] = in vivo, cited from earlier work
[4] = cited from earlier work
[5] = NTZ 500mg/kg/day BID oral for 3 days, 3 dpi
[6] = NTZ 500mg/kg/day BID oral for 4 days, 5 dpi
[7] = NTZ 750mg/kg/day TID oral for 3 days, 3 dpi
[8] = Nitazoxanide per os 500mg/kg/day BID, sacrifice day 3
[9] = Nitazoxanide per os 500mg/kg/day BID, sacrifice day 5
[10] = Nitazoxanide per os 750mg/kg/day BID, sacrifice day 3

SMILES: CC(=O)Oc1ccccc1C(=O)Nc1ncc([N+](=O)[O-])s1 [NTZ, Nitazoxanide]
- infectious titers in clarified lung homogenates vs untreated animals (SARS-CoV-2 [1]; [5]): no significant differences
- viral RNA yields in clarified lung homogenates vs untreated animals (SARS-CoV-2 [1]; [5]): no significant differences
- viral RNA yields in plasma vs untreated animals (SARS-CoV-2 [1]; [5]): No significant difference
- infectious titers in clarified lung homogenates vs untreated animals (SARS-CoV-2 [1]; [6]): no significant reduction
- viral RNA yields in clarified lung homogenates vs untreated animals (SARS-CoV-2 [1]; [6]): no significant reduction
- viral RNA yields in plasma vs untreated animals (SARS-CoV-2 [1]; [6]): no significant reduction
- infectious titers in clarified lung homogenates vs untreated animals (SARS-CoV-2 [1]; [7]): no significant differences
- viral RNA yields in clarified lung homogenates vs untreated animals (SARS-CoV-2 [1]; [7]): no significant differences
- viral RNA yields in plasma vs untreated animals (SARS-CoV-2 [1]; [7]): No significant difference
- Lung Infectious titers (SARS-CoV-2 [1]; [8]): 8.038 and 8.250 and 7.442 and 7.772 and 7.773 and 7.077
- Lung Viral RNA yields (SARS-CoV-2 [1]; [8]): 8.641
- Plasmatic viral RNA yields (SARS-CoV-2 [1]; [8]): 5.553 and 4.360 and 4.045 and 4.724 and 5.043 and 5.205
- Lung Viral RNA yields (SARS-CoV-2 [1]; [9]): 7.115 and 6.597 and 6.910
- Plasmatic viral RNA yields (SARS-CoV-2 [1]; [9]): 3.987 and 3.600 and 3.442 and 4.487 and 3.519
- Lung Infectious titers (SARS-CoV-2 [1]; Nitazoxanide per os 500mg/kg/day BID, sacrifice day 5, § : considered at 60 TCID50/mL (detection threshold)): ≤ 2.486 § and 4.354 and 4.491 and 5.007 and 3.086
- Lung Infectious titers (SARS-CoV-2 [1]; [10]): 7.345 and 6.869 and 7.090 and 6.311 and 7.103 and 7.069
- Lung Viral RNA yields (SARS-CoV-2 [1]; [10]): 8.692
- Plasmatic viral RNA yields (SARS-CoV-2 [1]; [10]): 3.193 and 2.818 and 5.191 and 4.129 and 4.008 and 4.113
- effective NTZ concentrations ex vivo (SARS-CoV-2 [2]): 5 µM
- effective NTZ concentrations ex vivo (SARS-CoV-2 [2]; conversion of 5µM): 1.54 µg/mL

SMILES: O=C(Nc1ncc([N+](=O)[O-])s1)c1ccccc1O [TIZ, tizoxanide]
- Tmax ([3]; human): approximately 2 hours
- apparent clearance [3]: 19.34 L/h
- volume of distribution [3]: 38.68 L
- bound to plasma proteins [4]: 99%
